Data on nine molecules can be found in ChEMBL document CHEMBL4033614, “Antineoplastic Agents. 603. Quinstatins: Exceptional Cancer Cell Growth Inhibitors” (2017).

Square brackets hold non-standard residues; d marks the D form. Peptide text beside a SMILES is read from it. * marks the point of attachment. Dolaproine = CO[C@@H]([C@@H]1CCCN1)[C@@H](C)C(=O)O; Dil = CC[C@H](C)[C@H](NC)[C@@H](CC(=O)O)OC; X1 = C[C@@H](N*)[C@@H](O)c1ccccc1; NMeV = CN[C@H](C(=O)O)C(C)C

The subject of one assay is KM-20L2. As to the kind of experiment: Growth inhibition of human KM20L2 cells incubated for 48 hrs by sulforhodamine B assay. The conditions noted are these: KM-20L2, 48 h.
For a further assay, the system named is SF-268. As to the kind of experiment: Growth inhibition of human SF268 cells incubated for 48 hrs by sulforhodamine B assay. The conditions noted are these: SF-268, 48 h.
In another assay the test system is MCF7. As to the kind of experiment: Growth inhibition of human MCF7 cells incubated for 48 hrs by sulforhodamine B assay. As to conditions: MCF7, 48 h.
Another assay relates to NCI-H460. Kind of assay: Growth inhibition of human NCI-H460 cells incubated for 48 hrs by sulforhodamine B assay. As to conditions: NCI-H460, 48 h.
The test system of assay [1] is BXPC-3. Kind of assay: Growth inhibition of human BxPC3 cells incubated for 48 hrs by MTT assay. Type of assay: functional. The conditions noted are these: BXPC-3, 48 h.
Another assay has as its system DU-145. Kind of assay: Growth inhibition of human DU145 cells incubated for 48 hrs by sulforhodamine B assay. As to conditions: DU-145, 48 h.
For assay [2], the system named is BXPC-3. As to the kind of experiment: Growth inhibition of human BxPC3 cells incubated for 48 hrs by sulforhodamine B assay. As to conditions: BXPC-3, 48 h.

For `CC[C@H](C)[C@@H]([C@@H](CC(=O)N1CCC[C@H]1[C@H](OC)[C@@H](C)C(=O)NCCc1ccc2ccccc2n1)OC)N(C)C(=O)[C@@H](NC(=O)[C@H](C(C)C)N(C)C)C(C)C`, the GI50 turned out to be 0.438 nM in the assay with KM-20L2; 0.31 nM in the assay on SF-268; 0.412 nM in the assay on MCF7; 6.77 nM in the assay with NCI-H460; 12.4 nM in the assay with BXPC-3 [1]; 0.412 nM in the assay on DU-145.

As for `CC[C@H](C)[C@@H]([C@@H](CC(=O)N1CCC[C@H]1[C@H](OC)[C@@H](C)C(=O)NCCc1cccc2ncccc12)OC)N(C)C(=O)[C@@H](NC(=O)[C@H](C(C)C)N(C)C)C(C)C`, the GI50 came out at 0.305 nM in the assay with KM-20L2; 0.146 nM in the assay with SF-268; 0.097 nM in the assay on MCF7; 6.37 nM in the assay with NCI-H460; 2.79 nM in the assay with BXPC-3 [1]; 0.172 nM in the assay with DU-145.

With `CC[C@H](C)[C@@H]([C@@H](CC(=O)N1CCC[C@H]1[C@H](OC)[C@@H](C)C(=O)NCCc1cccc2cccnc12)OC)N(C)C(=O)[C@@H](NC(=O)[C@H](C(C)C)N(C)C)C(C)C`, the GI50 in the assay with BXPC-3 [2] turned out to be 0.425 nM; in the assay on KM-20L2, 0.053 nM; in the assay on SF-268, 0.03 nM; with MCF7 it was 0.053 nM; with NCI-H460, 1.19 nM; in the assay on DU-145, 0.053 nM.

Turning to `CC[C@H](C)[C@@H]([C@@H](CC(=O)N1CCC[C@H]1[C@H](OC)[C@@H](C)C(=O)NCCc1cnc2ccccc2c1)OC)N(C)C(=O)[C@@H](NC(=O)[C@H](C(C)C)N(C)C)C(C)C`, the GI50 was determined as 0.532 nM in the assay on KM-20L2; 0.385 nM in the assay on SF-268; 0.305 nM in the assay with MCF7; 41.2 nM with NCI-H460; 27.9 nM in the assay with BXPC-3 [1]; 0.266 nM in the assay with DU-145.

As for `CC[C@H](C)[C@@H]([C@@H](CC(=O)N1CCC[C@H]1[C@H](OC)[C@@H](C)C(=O)NCCc1ccnc2ccccc12)OC)N(C)C(=O)[C@@H](NC(=O)[C@H](C(C)C)N(C)C)C(C)C`, the 50% growth inhibitory concentration (GI50) is 0.425 nM in the assay on KM-20L2; 0.252 nM in the assay on SF-268; 0.398 nM in the assay with MCF7; 5.71 nM in the assay with NCI-H460; 5.84 nM in the assay on BXPC-3 [1]; 0.305 nM in the assay with DU-145.

In the case of `CC[C@H](C)[C@@H]([C@@H](CC(=O)N1CCC[C@H]1[C@H](OC)[C@@H](C)C(=O)NCCc1ccc2ncccc2c1)OC)N(C)C(=O)[C@@H](NC(=O)[C@H](C(C)C)N(C)C)C(C)C`, the GI50 with KM-20L2 worked out at 0.518 nM; with SF-268, 0.399 nM; with MCF7, 0.532 nM; in the assay on NCI-H460, 5.71 nM; with BXPC-3 [1], 2.66 nM; in the assay on DU-145 it was 0.399 nM.

For `CC[C@H](C)[C@@H]([C@@H](CC(=O)N1CCC[C@H]1[C@H](OC)[C@@H](C)C(=O)NCCc1ccc2cccnc2c1)OC)N(C)C(=O)[C@@H](NC(=O)[C@H](C(C)C)N(C)C)C(C)C`, the GI50 stood at 0.054 nM in the assay with KM-20L2; 0.032 nM in the assay on SF-268; 0.039 nM with MCF7; 14.6 nM in the assay on NCI-H460; 4.12 nM in the assay with BXPC-3 [1]; 0.04 nM in the assay with DU-145.

Consider `CC[C@H](C)[C@@H]([C@@H](CC(=O)N1CCC[C@H]1[C@H](OC)[C@@H](C)C(=O)N[C@H](C)[C@@H](O)c1ccccc1)OC)N(C)C(=O)[C@@H](NC(=O)[C@@H](NC)C(C)C)C(C)C` (H-[NMeV]V[Dil][Dolaproine]-X1), for which the GI50 is 0.599 nM in the assay with KM-20L2; 0.432 nM in the assay with SF-268; 0.404 nM in the assay with MCF7; 0.683 nM with NCI-H460; over 1.39 nM in the assay with BXPC-3 [1]; 0.418 nM in the assay with DU-145.

For the molecule `CC[C@H](C)[C@@H]([C@@H](CC(=O)N1CCC[C@H]1[C@H](OC)[C@@H](C)C(=O)N[C@H](C)[C@@H](O)c1ccccc1)OC)N(C)C(=O)[C@@H](NC(=O)[C@H](C(C)C)N(C)C)C(C)C`, the GI50 in the assay on KM-20L2 is 0.492 nM; in the assay on SF-268, 0.492 nM; in the assay with MCF7, 0.232 nM; in the assay with NCI-H460 it was 0.533 nM; in the assay on BXPC-3 [1] it was over 1.37 nM; in the assay on DU-145 it was 0.424 nM.
